Results reported in patent publication US11234918B2, “Methods for botanical and/or algae extraction” (BASF CORPORATION, priority 2012, dated 2022).

How the values were obtained:
human keratinocytes [1] = assay: UVB light protection: LDH release from UVB-irradiated in vitro cultivated human keratinocytes (UVB-LDH); type: cell-based; details: positive control aspirin at 0.03%, control with UV = 100
Description: Antiinflammatory Properties In Vitro-UVB Light Protection (UVB-LDH and UVB-PGE2)
(§1) Cell Protection Effect Against UVB on In Vitro Cultivated Human Keratinocytes
This membrane stress is indicated by the release of the cytoplasm enzyme lactate dehydrogenase (LDH). The effect of UVB radiation was investigated on keratinocytes in vitro by determining the release of the cytoplasm enzyme LDH (lactate dehydrogenase). This enzyme serves as a marker for cell damage.
(§2) Method: To carry out the tests, a defined medium (DMEM), which comprises 10% fetal calf serum, was inoculated with the keratinocytes and the plant extract (diluted with saline solution) was added 72 hours after inoculation.
(§3) The keratinocytes were then irradiated with a UVB dose (30 mJ/cm^2-tubes: DUKE GL40E).
Following further incubation for 1 day at 37° C. and at 5% CO2, the LDH and the PGE2 content in the supernatant was determined. The content of LDH (lactate dehydrogenase) was determined by means of an enzyme reaction (kit used to investigate the LDH content from Roche). The content of PGE2 was determined using an ELISA test (ELISA kit from Roche). Following trypsin treatment, the cells were centrifuged and counted.
UVB-LDH LDH or lactate dehydrogenase determination by means of an enzyme reaction

human keratinocytes [2] = assay: UVB light protection: PGE2 release from UVB-irradiated in vitro cultivated human keratinocytes, ELISA (UVB-PGE2); type: cell-based; details: positive control aspirin at 0.03%, control with UV = 100
Protocol: as §1, §2, §3
Following further incubation for 1 day at 37° C. and at 5% CO2, the LDH and the PGE2 content in the supernatant was determined. […] The content of PGE2 was determined using an ELISA test (ELISA kit from Roche).
UVB-PGE2 prostaglandins E2 determined using an ELISA test (ELISA kit from Roche).

CC(=O)Oc1ccccc1C(=O)O [aspirin]
LDH release (% of UV control) (human keratinocytes [1]; Table 4): 15%
LDH release (% of UV control) (human keratinocytes [1]; Table 6): 0%
PGE2 release (% of UV control) (human keratinocytes [2]; Table 4): -6%
PGE2 release (% of UV control) (human keratinocytes [2]; Table 6): 0%
